From patent US6528043B2, “Composition containing sapogenin” (L'Oreal, priority 1999, dated 2003)

Assay: Maximum amount of diosgenin which can be dissolved at 50° C. (procedure repeated, varying the amount of diosgenin)
Assay type: physicochemical
Experimental: The above compositions were prepared in the following way. 100 mg of diosgenin were weighed out and placed in a hermetic pillbox, to which 4.9 g of the solvent(s) were added with magnetic stirring at 25° C. for not more than one hour. In the event that the diosgenin was not dissolved after one hour, the suspension was heated with stirring to 50° C. on a waterbath and then, in the absence of dissolution of the diosgenin after one hour at this temperature, the temperature of the suspension was raised to 70° C.
The above procedure was repeated, varying the amount of diosgenin placed in solution. It was thus shown that the maximum amount of diosgenin which can be dissolved at 50° C. in the mixture of solvents was 2%, whereas it was only 1% in each of the solvents taken individually.
The above procedure was repeated, varying the amount of diosgenin placed in solution. It was thus shown that the maximum amount of diosgenin which can be dissolved at 50° C. in the mixture of solvents was 4%, whereas it was only 1% in each of the solvents taken individually.
The above procedure was repeated, varying the amount of diosgenin placed in solution. It was thus shown that the maximum amount of diosgenin which can be dissolved at 50° C. in the mixture of solvents was 3%, whereas it was only 1% in each of the solvents taken individually.
The amount of diosgenin placed in solution was then varied. It was thus shown that the maximum amount of diosgenin which can be dissolved at 50° C. in the mixture of solvents was 3%, whereas it was only 1% in the ester and 2% in the UV screening agent.

maximum amount of diosgenin which can be dissolved (50/50 mixture of isononyl isononanoate and hexyldecanol): 3% | maximum amount of diosgenin which can be dissolved (50/50 mixture of isononyl isononanoate and octyl methoxycinnamate): 3% | maximum amount of diosgenin which can be dissolved (50/50 mixture of isopropyl myristate and hexyldecanol): 4% | maximum amount of diosgenin which can be dissolved (50/50 mixture of triglyceryl triisostearate and hexyldecanol): 2% | maximum amount of diosgenin which can be dissolved (hexyldecanol taken individually): 1% | maximum amount of diosgenin which can be dissolved (isononyl isononanoate (ester) alone): 1% | maximum amount of diosgenin which can be dissolved (isopropyl myristate taken individually): 1% | maximum amount of diosgenin which can be dissolved (octyl methoxycinnamate (UV screening agent) alone): 2% | maximum amount of diosgenin which can be dissolved (triglyceryl triisostearate taken individually): 1%
SMILES: C[C@@H]1CC[C@@]2(OC1)O[C@H]1C[C@H]3[C@@H]4CC=C5C[C@@H](O)CC[C@]5(C)[C@H]4CC[C@]3(C)[C@H]1[C@@H]2C [diosgenin, spirost-5-en-3-beta-ol]
